Experiment: xn = mol fraction of the nth substance listed
Conditions: 101 kPa

CCCCOC(=O)c1ccccc1 + CCCCCCCC
Conditions	viscosity [mPa·s]
298.15 K, x2 = 0.0819	2.313
298.15 K, x2 = 0.1257	2.139
298.15 K, x2 = 0.1681	1.973
298.15 K, x2 = 0.2263	1.771
298.15 K, x2 = 0.2749	1.61
298.15 K, x2 = 0.3195	1.476
298.15 K, x2 = 0.3719	1.339
298.15 K, x2 = 0.4121	1.246
298.15 K, x2 = 0.473	1.117
298.15 K, x2 = 0.5153	1.038
298.15 K, x2 = 0.5596	0.971
298.15 K, x2 = 0.6051	0.9
298.15 K, x2 = 0.6559	0.827
298.15 K, x2 = 0.7053	0.772
298.15 K, x2 = 0.7427	0.729
298.15 K, x2 = 0.794	0.674
298.15 K, x2 = 0.8349	0.635
298.15 K, x2 = 0.8859	0.591
298.15 K, x2 = 0.9357	0.552
308.15 K, x2 = 0.0945	1.866
308.15 K, x2 = 0.1325	1.737
308.15 K, x2 = 0.1853	1.579
308.15 K, x2 = 0.2276	1.465
308.15 K, x2 = 0.2687	1.364
308.15 K, x2 = 0.3288	1.233
308.15 K, x2 = 0.3769	1.139
308.15 K, x2 = 0.4139	1.073
308.15 K, x2 = 0.4741	0.975
308.15 K, x2 = 0.5134	0.916
308.15 K, x2 = 0.5651	0.848
308.15 K, x2 = 0.6054	0.797
308.15 K, x2 = 0.6525	0.743
308.15 K, x2 = 0.7052	0.688
308.15 K, x2 = 0.7478	0.649
308.15 K, x2 = 0.7925	0.61
308.15 K, x2 = 0.8351	0.577
308.15 K, x2 = 0.8734	0.549
308.15 K, x2 = 0.9291	0.514
318.15 K, x2 = 0.0361	1.714
318.15 K, x2 = 0.0929	1.554
318.15 K, x2 = 0.1407	1.438
318.15 K, x2 = 0.196	1.309
318.15 K, x2 = 0.2419	1.215
318.15 K, x2 = 0.2984	1.108
318.15 K, x2 = 0.346	1.027
318.15 K, x2 = 0.4006	0.943
318.15 K, x2 = 0.4467	0.878
318.15 K, x2 = 0.499	0.812
318.15 K, x2 = 0.5446	0.759
318.15 K, x2 = 0.5955	0.706
318.15 K, x2 = 0.6382	0.665
318.15 K, x2 = 0.6905	0.619
318.15 K, x2 = 0.7358	0.584
318.15 K, x2 = 0.7849	0.546
318.15 K, x2 = 0.8274	0.518
318.15 K, x2 = 0.8768	0.488
318.15 K, x2 = 0.9193	0.464

CC(C)(C)O + CCCCCCCCCC
Conditions	viscosity [mPa·s]
323.15 K, x1 = 0.9499	1.155

CCCCOC(=O)c1ccccc1 + CCCCCCCCCC
Conditions	viscosity [mPa·s]
298.15 K, x2 = 0.0918	2.334
298.15 K, x2 = 0.1358	2.183
298.15 K, x2 = 0.1792	2.041
298.15 K, x2 = 0.2262	1.896
298.15 K, x2 = 0.2664	1.788
298.15 K, x2 = 0.3097	1.678
298.15 K, x2 = 0.3591	1.567
298.15 K, x2 = 0.4089	1.47
298.15 K, x2 = 0.4486	1.401
298.15 K, x2 = 0.4948	1.329
298.15 K, x2 = 0.5503	1.25
298.15 K, x2 = 0.5873	1.204
298.15 K, x2 = 0.6281	1.153
298.15 K, x2 = 0.6957	1.077
298.15 K, x2 = 0.741	1.032
298.15 K, x2 = 0.7899	0.988
298.15 K, x2 = 0.8403	0.946
298.15 K, x2 = 0.8939	0.908
298.15 K, x2 = 0.9566	0.87
308.15 K, x2 = 0.0669	1.981
308.15 K, x2 = 0.1091	1.855
308.15 K, x2 = 0.1542	1.738
308.15 K, x2 = 0.1965	1.637
308.15 K, x2 = 0.245	1.534
308.15 K, x2 = 0.2934	1.443
308.15 K, x2 = 0.3293	1.381
308.15 K, x2 = 0.3765	1.306
308.15 K, x2 = 0.4326	1.224
308.15 K, x2 = 0.4647	1.182
308.15 K, x2 = 0.5148	1.12
308.15 K, x2 = 0.563	1.063
308.15 K, x2 = 0.6162	1.008
308.15 K, x2 = 0.6547	0.972
308.15 K, x2 = 0.7081	0.924
308.15 K, x2 = 0.7512	0.891
308.15 K, x2 = 0.8136	0.846
308.15 K, x2 = 0.8573	0.818
308.15 K, x2 = 0.9215	0.783
318.15 K, x2 = 0.0724	1.636
318.15 K, x2 = 0.0793	1.618
318.15 K, x2 = 0.1214	1.527
318.15 K, x2 = 0.1698	1.43
318.15 K, x2 = 0.2143	1.349
318.15 K, x2 = 0.2625	1.268
318.15 K, x2 = 0.3071	1.201
318.15 K, x2 = 0.3576	1.129
318.15 K, x2 = 0.4024	1.073
318.15 K, x2 = 0.4543	1.013
318.15 K, x2 = 0.4998	0.966
318.15 K, x2 = 0.551	0.917
318.15 K, x2 = 0.5985	0.876
318.15 K, x2 = 0.6498	0.834
318.15 K, x2 = 0.6927	0.804
318.15 K, x2 = 0.7509	0.764
318.15 K, x2 = 0.8026	0.733
318.15 K, x2 = 0.901	0.682
318.15 K, x2 = 0.9265	0.673

Reference: the CheMixHub viscosity set
